Tests used:
Format in all cases: cell-based
[1] = test system: type I collagen α chain gene expression; assay: Type I collagen α chain gene expression in mouse fibroblast (real-time PCR); conditions: for suppressive effect on the gene expression of type I collagen α chain: data not shown
Protocol: (§1) The cell culture and the addition of palmitic acid were conducted similarly to Example 1. The mouse fibroblast was inoculated to and incubated in a commercially available 12-well culture plate (353043, FALCON, Becton, Dickinson and Company Japan) at 3×10^4 cells/mL. The culture medium was removed using an aspirator, and each well was washed twice with each 2 ml of PBS. An RNA was extracted from each cell in each well using an RNeasy Protect Kit (74104, Qiagen) according to Manufacturer's instructions. A cDNA was produced according to a standard method and used in a real-time PCR. This real-time PCR employed LightCycler (registered trademark) FastStart DNA Master^PLUS SYBR Green I (Catalog No. 03 515 885 001, Roche Diagnostic K.K.). For amplifying type I collagen α chain, elastin, matrix metalloproteinase 13 and 28S rRNA genes, the forward and reverse primers of SEQ ID NO: 1 and 2, SEQ ID NO: 3 and 4, SEQ ID NO: 5 and 6 and SEQ ID NO: 7 and 8, respectively, were employed. The PCR was conducted under a reaction condition involving 1 cycle of 95° C. for 10 minutes and 35 cycles of 95° C. for 15 seconds, 60° C. for 5 seconds and 72° C. for 5 seconds. The expression levels of type I collagen α chain, elastin and matrix metalloproteinase 13 gene were analyzed by using LightCycler Software Ver. 3.5 (Roche Diagnostic K.K.) and normalized on the basis of the expression level of 28S rRNA. The gene expressions level of the type I collagen α chain, elastin and matrix metalloproteinase 13 were calculated as percentages of the quotients obtained by dividing the gene expression rates (%) under each experimental condition by the gene expression levels in the control groups containing no palmitic acid.

[2] = test system: matrix metalloproteinase 13 gene expression; assay: Matrix metalloproteinase 13 gene expression in mouse fibroblast (real-time PCR); conditions: for promotive effect on the gene expression of matrix metalloproteinase 13: data not shown
Protocol: as §1

mouse 3T3-L1 cell = assay: Mouse fibroblast proliferation (alamar Blue); conditions: 48 hours
Protocol: The cell employed was a mouse 3T3-L1 cell. This cell was inoculated. at 3×10^4 cells/mL to a commercially available 24-well culture plate (353047, FALCON, Becton, Dickinson and Company Japan), where it was cultured in a commercially available cell culture medium (D-MEM, 11885084, GIBCO, Life Technologies Japan Ltd.) supplemented with 10% bovine serum (16010159, GIBCO, Life Technologies Japan Ltd.). The cell was cultured for about 6 hours in 5% CO2 and saturated water vapor atmosphere at 37° C. Thereafter, the culture medium for culturing the mouse fibroblast was switched to a medium which was the above-mentioned cell culture medium supplemented with 0.5% bovine serum (hereinafter referred to as “mouse fibroblast proliferation evaluation medium”), where the mouse fibroblast was cultured for 12 hours in 5% CO2 and saturated water vapor atmosphere at 37° C. When investigating the effects of saturated and unsaturated fatty acids on the proliferation of the fibroblast, 5 μM and 10 μM palmitic acid (S-33, Wako Pure Chemical Industries, Ltd.), 5 μM and 10 μM oleic acid (07501, Sigma Aldrich Japan K.K.) or 1 μM, 3 μM and 10 μM stearic acid ([…], Sigma Aldrich Japan. K.K.) was added after 12 hours to the mouse fibroblast proliferation evaluation medium), and the fibroblast was cultured for 48 hours in 5% CO2 and saturated water vapor atmosphere at 37° C. As a control, the cell was cultured in a culture medium without these saturated fatty acids and unsaturated fatty acid. […] The cell proliferation rate (%) was calculated as a percentage of the quotient obtained by dividing the fluorescent intensity of the alamar Blue under each experiment condition by the fluorescent intensity in the control group supplemented with no saturated or unsaturated fatty acids.

elastin gene expression [3] = assay: Elastin gene expression in mouse fibroblast (real-time PCR); conditions: for suppressive effect on the gene expression of elastin: data not shown
Protocol: as §1

[4] = test system: type I collagen α chain gene expression; assay: Type I collagen α chain gene expression in human fibroblast (real-time PCR); conditions: 10 μM and 30 μM, dependent on concentration (FIG. 8)
Protocol: (§2) The culture medium was removed using an aspirator, and each well was washed twice with each 2 ml of PBS. An RNA was extracted from each cell in each well using an RNeasy Protect Kit (74104, Qiagen) according to Manufacturer's instructions. A cDNA was produced according to a standard method and used in a real-time PCR. This real-time PCR employed LightCycler (registered trademark) FastStart DNA Master^PLUS SYBR Green I (Catalog No. 03 515 885 001, Roche Diagnostic K.K.). […] The expression levels of type I collagen α chain, elastin and matrix metalloproteinase 13 gene were analyzed by using LightCycler Software Ver. […] The gene expressions level of the type I collagen α chain, elastin and matrix metalloproteinase 13 were calculated as percentages of the quotients obtained by dividing the gene expression rates (%) under each experimental condition by the gene expression levels in the control groups containing no palmitic acid. […] The quantification of gene expression was conducted similarly to Example 2. […] The % gene expressions of the type I collagen α chain, elastin and matrix metalloproteinase 1 were calculated as percentages of the quotients obtained by dividing the gene expression levels under each experimental condition by the gene expression levels in the control groups containing no palmitic acid.

mouse fibroblast = assay: Effect of EPA and palmitic acid on fibroblast proliferation (alamar Blue); conditions: palmitic acid at 10 μM alone (FIG. 11)
Protocol: The cell employed was a mouse 3T3-L1 cell. This cell was inoculated. at 3×10^4 cells/mL to a commercially available 24-well culture plate (353047, FALCON, Becton, Dickinson and Company Japan), where it was cultured in a commercially available cell culture medium (D-MEM, 11885084, GIBCO, Life Technologies Japan Ltd.) supplemented with 10% bovine serum (16010159, GIBCO, Life Technologies Japan Ltd.). The cell was cultured for about 6 hours in 5% CO2 and saturated water vapor atmosphere at 37° C. Thereafter, the culture medium for culturing the mouse fibroblast was switched to a medium which was the above-mentioned cell culture medium supplemented with 0.5% bovine serum (hereinafter referred to as “mouse fibroblast proliferation evaluation medium”), where the mouse fibroblast was cultured for 12 hours in 5% CO2 and saturated water vapor atmosphere at 37° C. […] The cell proliferation rate (%) was calculated as a percentage of the quotient obtained by dividing the fluorescent intensity of the alamar Blue under each experiment condition by the fluorescent intensity in the control group supplemented with no saturated or unsaturated fatty acids. […]

human fibroblast = assay: Human fibroblast proliferation (alamar Blue); conditions: 5 μM to 30 μM, dependent on concentration (FIG. 7)
Protocol: Thereafter, alamar Blue (Trade mark, DAL1025, Invitrogen, Life Technologies Japan Ltd.) was added to the culture medium at a final concentration of 10%, and its supernatant was examined for the fluorescent intensity 2 hours later with an excitation wavelength of 544 nm and a fluorescent intensity of 590 nm in accordance with the manufacture's instruction. The cell proliferation rate (%) was calculated as a percentage of the quotient obtained by dividing the fluorescent intensity of the alamar Blue under each experiment condition by the fluorescent intensity in the control group supplemented with no saturated or unsaturated fatty acids. The cell culture, the addition of palmitic acid and the determination of the % of proliferation of the fibroblast were conducted similarly to Example 1. The human fibroblast (CC-2509, Lonza Japan Ltd.) was incubated for 6 hours in a commercially available cell culture medium (D-MEM, 11885084, GIBCO, Life Technologies Japan Ltd.) supplemented with 10% of fetal bovine serum (FBS) (Biowest). Thereafter, the culture medium for incubating the human fibroblast was switched to the cell culture medium supplemented with 0.5% of fetal bovine serum (hereinafter referred to as “human fibroblast proliferation evaluation medium”) and the human fibroblast was incubated at 37° C. and 5% CO2 under a saturated water vapor atmosphere for 12 hours. […]

[5] = test system: matrix metalloproteinase 1 gene expression; assay: Matrix metalloproteinase 1 gene expression in human fibroblast (real-time PCR); conditions: 10 μM and 30 μM, dependent on concentration (FIG. 10)
Protocol: as §2

elastin gene expression [6] = assay: Elastin gene expression in human fibroblast (real-time PCR); conditions: 3 μM to 30 μM, dependent on concentration (FIG. 9)
Protocol: as §2

| SMILES | suppressive effect on the gene expression of type I collagen α chain [1] | promotive effect on the gene expression of matrix metalloproteinase 13 [2] | cell proliferation (mouse 3T3-L1 cell; 5 μM and 10 μM, vs control (FIG. 2)) | suppressive effect on the gene expression of elastin (elastin gene expression [3]) | type I collagen α chain gene expression ([1]; 10 μM, vs control (FIG. 4)) | matrix metalloproteinase 13 gene expression ([2]; 10 μM, vs control (FIG. 6)) | type I collagen α chain gene expression [4] | cell proliferation (mouse fibroblast) | cell proliferation (human fibroblast) | cell proliferation (mouse 3T3-L1 cell; 10 μM, vs control (FIG. 1)) | elastin gene expression (elastin gene expression [3]; 10 μM, vs control (FIG. 5)) | matrix metalloproteinase 1 gene expression [5] | elastin gene expression (elastin gene expression [6]) | cell proliferation (mouse 3T3-L1 cell; 1 μM to 10 μM, vs control (FIG. 3)) |
| --- | --- | --- | --- | --- | --- | --- | --- | --- | --- | --- | --- | --- | --- | --- |
| CCCCCCCC/C=C\CCCCCCCC(=O)O [oleic acid] | did not have a suppressive effect | did not have | statistically significant reduction | did not have a suppressive effect | – | – | – | – | – | – | – | – | – | – |
| CCCCCCCCCCCCCCCC(=O)O [palmitic acid] | – | – | – | – | statistically significant reduction | statistically significant increase | statistically significant reduction | reduced markedly | statistically significant reduction | statistically significant reduction | statistically significant reduction | statistically significant increase | statistically significant reduction | – |
| CCCCCCCCCCCCCCCCCC(=O)O [stearic acid] | did not have a suppressive effect | did not have | – | did not have a suppressive effect | – | – | – | – | – | – | – | – | – | no statistically significant reduction |

— patent US20120149775A1, “METHODS FOR PREVENTING AND IMPROVING SKIN ELASTIC PROPERTY LOSS” (SHISEIDO COMPANY, LTD., priority 2010, published 2012)
